Measured values: patent US10869846B2, “N-acetylcysteine amide (NAC amide) in the treatment of diseases and conditions associated with oxidative stress” (SENTIENT LIFESCIENCES, INC., priority 2005, dated 2020)

Key:
[1] = system: PC12 cells; test: GSH measurement in cells (NPM/HPLC); format: cell-based; conditions: GLU (10 mM) alone
Procedure: Cells were seeded at a density of 80,000 cells/cm^2 on poly-D-lysine coated (0.05 mg/ml) 75 cm^2 flasks (5 ml/flask) for GSH measurement. […] After the incubation period, cells were removed from the cultures and homogenized in serine borate buffer (100 mM Tris-HCl, 10 mM boric acid, 5 mM L-serine, 1 mM DETAPAC, pH 7.4). Twenty (20) μl of the diluted cell homogenate were added to 230 μl of serine borate buffer and 750 μl of NPM (1 mM in acetonitrile). The resulting solutions were incubated at room temperature for 5 min. The reaction was stopped by the addition of 5 μl of 2N HCl. The samples were then filtered through a 0.2 μm Acrodisc filter and injected onto the HPLC system.
[…] Values represent means.+−.SD. Statistically different values of *P<0.05 were determined, compared to control. **P<0.001 compared to glutamate-treated group. ***P<0.05 compared to glutamate-treated group.

[2] = system: PC12 cells; test: MDA measurement in glutamate-exposed cells; format: cell-based; conditions: GLU (10 mM) alone, 24 h
Procedure: MDA measurement: To prepare the solution, 350 μl of straight cell homogenate, 100 μl of 500 ppm BHT (butylated hydroxytoluene), and 550 μl of 10% TCA (trichloroacetic acid) were combined and boiled for 30 min. The tubes were cooled on ice and centrifuged for 10 min at 2500 rpm. Five hundred (500) μl of the supernatant were removed and 500 μl of TBA (thiobarbituric acid) were added. The tubes were boiled again for 30 min, and then cooled on ice. From this solution, 500 μl were removed, added to 1.0 ml of n-butanol, vortexed, and centrifuged for 5 min at 60 g to facilitate a phase separation. The top layer was then filtered through 0.45 μm filters and injected onto a 5 μm C18 column (250×4.6 mm) on a reverse phase HPLC system. The mobile phase consisted of 69.4% 5 mM sodium phosphate buffer (pH=7.0), 30% acetonitrile, and 0.6% THF (tetrahydrofuran). The excitation wavelength was 515 nm; the emission wavelength was 550 nm (Draper H. H. et al., Free Radic Biol Med., 15(4):353-63, 1993).
Cells were plated and grown for 24 hours, and then they were exposed to glutamate (10 mM) in the presence or absence of NAC amide (750 μM). Twenty-four hours later, the cells were harvested and malondialdehyde levels were measured. Values represent means.+−.SD. Statistically different values of *P<0.002 and **P<0.05 were determined, compared to control. ***P<0.05 compared to glutamate-treated group.

[3] = system: mouse; conditions: subcutaneous injection; cited from earlier work

Row | SMILES | GSH Levels [1] [nM/mg protein] | MDA Levels [2] [nM/100 mg protein] | toxicity relative to morphine [3] [times]
1 | N[C@@H](CCC(=O)O)C(=O)O [GLU, glutamate, reference compound] | 23 ± 4.2 | 247 ± 26 | 
2 | CN1CC[C@]23c4c5ccc(O)c4O[C@H]2C(=O)C=C[C@H]3[C@H]1C5 [Morphinone, morphinone] |  |  | 9
